Assay results published in patent US20250032484A1, “THERAPEUTIC TARGETS AND AGENTS FOR THE TREATMENT OF POSTTRAUMATIC STRESS DISORDER” (priority 2021, published 2025).

Test system: VA patients with PTSD (PTSD symptoms, PTSD Checklist)
Experiment: TreeScan nested case-control study of medications associated with PTSD symptom improvement (PTSD Checklist) in VA records
Type: in vivo, human
Settings: for association with PTSD symptom improvement, in words (statistical alert at P<0.1): overall sample
Protocol: Study Sample and Data Sources. A nested case-control study was conducted within a previously established retrospective cohort that included all VA users with a clinical diagnosis of PTSD (International Classification of Diseases [ICD]-9:309.81, ICD-10: F43.1x) from Oct. 1, 1999 through Sep. 30, 2019 (Shiner et al. (2021) J Eval Clin Pract.). The data source contains information on services use, clinical diagnoses, filled prescriptions, and patient-reported outcome measures (PROMs) for PTSD using the PTSD Checklist (PCL) for these patients. This study was approved by the Veterans Institutional Review Board of Northern New England.
The goal of the current study was to evaluate any filled medications associated with PTSD symptom improvement, and as such, the analytic sample for this study included only patients with PROMs that were at least 30 days apart. 30 days was selected to allow for medications to be taken for at least one full course (typically 28 days). Patients with PROMs more than 365 days apart were excluded as these are unlikely to provide an accurate assessment of PTSD symptom change between the two time points. For patients who had two overlapping PROM intervals, those closest to 84 days in length were chosen to emulate typical PTSD medication efficacy trials (Watts et al. (2013) J Clin Psychiatry. 74: e541-550). When a patient had two or more overlapping intervals at exactly 84 days, the historically earliest interval was chosen. If patients had multiple non-overlapping intervals, all were included. Patients who met the selection criteria for PTSD in the original cohort and had at least one PROM pair where they started a new medication (defined below) constituted the overall analytic sample for the current study.
PTSD Improvement Cases and No Improvement Controls. In order to maximize the number of patients with available symptomatic measurement, two different versions of a PROM for PTSD were integrated into a single dataset (Shiner et al. (2021) J Eval Clin Pract.). The two PROMs were the PCL versions aligned to the Diagnostic and Statistical Manual of Mental Disorders (DSM), version IV and Version 5 (APA (2000): Diagnostic and Statistical Manual of Mental Disorders. 4th Edition. Text Revision: DSM-IV-TR. Arlington, VA: American Psychiatric Association: APA (2013): Diagnostic and Statistical Manual of Mental Disorders: Fifth Edition (DSM-5). Washington, D.C.: American Psychiatric Association), which will heretofore be called the PCL-IV and the PCL-5 (Blevins et al. (2015) J Trauma Stress. 28:489-498: Weathers et al. (1993) Trauma. Coping. and Adaptation. San Antonio, Texas: International Society for Traumatic Stress Studies, 9th Annual Meeting). […] A validated crosswalk (ICC=0.96) was used to convert all values to PCL-5 scoring (Moshier et al. (Under review): An empirical crosswalk for the PTSD Checklist: Translating DSM-IV to DSM-5). PTSD improvement cases were defined by a clinically meaningful improvement, which was a decrease of 15 points or more between assessment points (Lee et al. (2019) Reliable Change Index and Clinically Significant Margins for the CAPS-5 and PCL-5 among Veterans. Boston, MA: International Society for Traumatic Stress Studies, 35th Annual Meeting). […] Thus, the no PTSD improvement control group was defined as worsening of symptoms or reductions of up to 7 points on the PCL. Improvements between 8 and 14 points were of uncertain clinical significance and were therefore excluded.
Identification and Classification of New Medications. The predictors of interest were initiation of medications for any indication. Candidate agents included those that were started in the interval between PCL pairs and continued for at least a 28-day supply. When patients started multiple medications between a given PCL pair, they contributed information for each of the medications in the tree.

[1] = all patients in the overall sample
[2] = baseline PCL 38 or higher, PTSD diagnosis within 30 days, without any concurrent evidence-based treatment
[3] = baseline PCL score of 38 or higher and PTSD diagnosis within 30 days
[4] = case = improved by 15 or more points on PTSD Checklist, all patients in the overall sample
[5] = improvement in PTSD, all patients in the overall sample
[6] = overall sample without any concurrent evidence-based treatment

Molecule | EXP = Expected Cases [1] | EXP = Expected Cases [2] | O:E = Observed Cases over Expected Cases [2] | OBS = Observed Cases [2] | EXP = Expected Cases [3] | O:E = Observed Cases over Expected Cases [3] | OBS = Observed Cases [3] | OBS = Observed Cases [4] | O:E = Observed Cases over Expected Cases [5] | association with PTSD symptom improvement, in words (statistical alert at P<0.1) | EXP = Expected Cases [6] | O:E = Observed Cases over Expected Cases [6] | OBS = Observed Cases [6] | O:E = Observed Cases over Expected Cases (improvement in PTSD, all patients in the overall sample, listed as velpatasvir)
O=c1n(CCCN2CCN(c3cccc(Cl)c3)CC2)nc2ccccn12 [Trazodone] | 4061 | 893 | 1.12 | 992 | 3396 | 1.07 | 3610 | 4308 | 1.06 | similarly small associations | 1157 | 1.1 | 1272 | 
COC[C@H]1C[C@@H](c2ncc(-c3ccc4c(c3)COc3cc5c(ccc6[nH]c([C@@H]7CC[C@H](C)N7C(=O)[C@@H](NC(=O)OC)C(C)C)nc65)cc3-4)[nH]2)N(C(=O)[C@H](NC(=O)OC)c2ccccc2)C1 [Velpatasvir, velpatasvir] | 11 |  |  |  | 10 | 2.17 | 21 | 24 | 2.10 |  |  |  |  | 2.10
COC(=O)N[C@H](C(=O)N1CC2(CC2)C[C@H]1c1nc(-c2ccc3c(c2)C(F)(F)c2cc(-c4ccc5nc([C@@H]6[C@H]7CC[C@H](C7)N6C(=O)[C@@H](NC(=O)OC)C(C)C)[nH]c5c4)ccc2-3)c[nH]1)C(C)C [ledipasvir] |  |  |  |  |  |  |  |  |  | Neither sofosbuvir nor ledipasvir were associated with a significantly higher than expected improvement |  |  |  | 
CC(C)OC(=O)[C@H](C)N[P@](=O)(OC[C@H]1O[C@@H](n2ccc(=O)[nH]c2=O)[C@](C)(F)[C@@H]1O)Oc1ccccc1 [sofosbuvir] |  |  |  |  |  |  |  |  |  | Neither sofosbuvir nor ledipasvir were associated with a significantly higher than expected improvement |  |  |  | 
Cholecalciferol | 2470 |  |  |  | 2070 | 1.08 | 2238 | 2647 | 1.07 |  |  |  |  | 
Fluoxetine | 1571 |  |  |  |  |  |  | 1716 | 1.09 | similarly small associations |  |  |  | 
Naloxone | 312 |  |  |  | 279 | 1.35 | 376 | 426 | 1.37 |  |  |  |  | 
Naltrexone | 504 |  |  |  | 444 | 1.21 | 536 | 605 | 1.20 |  |  |  |  | 
Quetiapine |  |  |  |  |  |  |  |  |  |  | 371 | 1.24 | 460 | 
Sertraline | 4025 |  |  |  | 3434 |  | 3909 | 4659 |  |  |  |  |  | 
